Experimental data reported in US20160177395A1, “BIOMARKERS FOR THE PREDICTION OF RENAL INJURY” (priority 2007, published 2016).
Where “and” joins values, the source holds several entries; their conditions need not be identical. Identical values can stand only once.

Legend:
[1] = tested on: kidney tissues of treated or untreated rats; experiment: Real-time qRT-PCR of marker transcripts in kidney tissue panel, discovery stage (Table 22); format: in vivo, rat; conditions: rat kidney, listed as Dox
Method: Before RT preparation the RNA was treated with DNA-free (Ambion, cat. No. AM1906) DNase treatment and removal—according to manufacturer protocol. DNase procedure was repeated until no DNA is detected in a PCR reaction using the RNA samples.
The mixture is then incubated for 5 min at 65° C. and then quickly chilled on ice. Thereafter, 20 μl of 5× SuperscriptII first strand buffer (Invitrogen, Cat. No. Y00146), 9.6 μl 0.1M DTT (Invitrogen, Cat. No. Y00147) and 160 units RNasin (Promega, Cat. No. N251A) are added, and the mixture is incubated for 10 min at 25° C., followed by further incubation at 42° C. for 2 min. […] The resulting cDNA is diluted 1:20 in TE buffer (10 mM Tris pH=8, 1 mM EDTA pH=8).
cDNA (5 μl), prepared as described above, is used as a template in Real-Time PCR reactions using the SYBR Green I assay (PE Applied Biosystem) with specific primers in 100 nM concentration if not indicated otherwise and UNG Enzyme (Eurogentech or equal) Amplification is effected as follows: 50° C. for 2 min, 95° C. for 10 min, and then 40 cycles of 95° C. for 15 sec, followed by 60° C. for 1 min (if not indicated otherwise). Amplification step is followed by dissociation step. Detection is performed by using the PE Applied Biosystem SDS 7000. The cycle in which the reactions achieved a threshold level (Ct) of fluorescence is registered and is used to calculate the relative transcript quantity in the RT reactions. Non-detected samples are assigned Ct value of 41 and are calculated accordingly. The relative quantity is calculated using the equation Q=efficiencŷ-Ct. The efficiency of the PCR reaction is calculated from a standard curve, created by using serial dilutions of several reverse transcription (RT) reactions. To minimize inherent differences in the RT reaction, the resulting relative quantities are normalized to normalization factor calculated as follows: […]
The relative quantity (Q) of each housekeeping gene in each sample is calculated as described above. In order to calculate the “relative Q relative to MED” each Q for each HSKP gene is divided by the median quantity of this gene in all panel samples. To finally achieve the normalization factor of each sample the geometric mean of all four “relative Q relative to MED” was calculated. The normalization factor was then used for further calculations.
The markers of the present invention were tested with regard to their expression in a panel of kidney tissues samples from treated and control rats. Unless otherwise noted, all experimental data relates to the novel polynucleotides and proteins of the present invention, named according to the segment being tested (as expression was tested through RT-PCR as described). Tests were then performed as described in the “Materials and Experimental Procedures” section above.
The qRT-PCR measurements were normalized according to each samples normalization factor as described in “RT Preparation and Real-Time qRT-PCR Analysis” and further multiplied by a constant factor for ease of viewing.

[2] = tested on: kidney tissues of treated or untreated rats; experiment: Real-time qRT-PCR of signature amplicons, validation stage, labeled and un-labeled samples (Table 23); conditions: for H31883_DB71_seg13 normalized qRT-PCR result / MUSCYCG1R_DB81_seg19-20 normalized qRT-PCR result / W41270_DB81_seg11 normalized qRT-PCR result: labeled sample, one line per animal
Source text: New primers were designed for part of the transcripts, and new conditions for several qRT-PCR reactions were used, as described below.
The measurements were normalized in two steps. First—according to the house-keeping-genes normalization factor, and second—each plate was normalized according to ratio of the intensity measurements from samples appearing in it and in the shuffled (normalization) plate (Table 25 provides the plates details and the section “Inter-Plate Normalization” provides details of the normalization process). The normalized values were further scaled by a factor, for ease of viewing.
RT was prepared and qRT-PCR performed and analyzed as described hereinabove. qRT-PCR was performed for the four genes comprising the signature of the discovery stage described in Table 13. Two amplicons were tested for each gene—one representing the wild-type transcript, and another representing an alternative splice variant. Each amplicon was measured using the labeled samples described in Table 9 herein, as well as the un-labeled samples. Samples from both groups (labeled and un-labeled) were tested in seven 96 well plates as described in Table 25. In order to correct possible run to run variations, the following controls were added: 1. several samples were repeated in all 96 wells plates; 2. control shuffled plate was designed which combined samples from all seven test plates.
To account for possible differences of qRT-PCR measurements between the different plates due to experimental artifacts, a normalization plate was planned. This plate, designated hereinabove ‘shuffled plate’, contained samples from all other plates. Real Time PCR was performed on this plate using the primers appropriate for all candidates in tables 26 and 27. For each other plate (plates 1-7 above) and each amplicon, the samples appearing also in the shuffled plate were examined—the ratio between the transcript abundance as measured in the plate to the abundance as measured in the shuffled plate was calculated, outliers were manually removed, and the geometric mean of the left ratios was taken as an additional multiplicative normalization factor for the plate and amplicon.

[3] = day28, individual animals (F and M)
[4] = day1, female rat kidney, listed as Dox
[5] = day1, male rat kidney, listed as Dox
[6] = day28, female rat kidney, listed as Dox
[7] = day28, male rat kidney, listed as Dox
[8] = labeled samples, day1, kidney of individual male/female rats, listed as Dox
[9] = labeled samples, day5, kidney of individual male/female rats, listed as Dox
[10] = labeled samples, day28, kidney of individual male/female rats, listed as Dox

SMILES: COc1cccc2c1C(=O)c1c(O)c3c(c(O)c1C2=O)C[C@@](O)(C(=O)CO)C[C@@H]3O[C@H]1C[C@H](N)[C@H](O)[C@H](C)O1 [Doxorubicin]
- RATRAB13X_DB71_seg11-13 normalized Real Time PCR [1, 3]: 0.74 and 0.95 and 1.05 and 0.91 and 0.77 and 0.84
- RNU24174_DB71_seg8 normalized Real Time PCR [1, 3]: 1.99 and 2.06 and 4.39 and 3.5 and 2.2 and 2.91
- W41270_DB81_seg11 normalized Real Time PCR [1, 3]: 0.84 and 0.44 and 0.77 and 1.64 and 0.54 and 0.5
- W64472_DB81_seg2 normalized Real Time PCR [1, 3]: 0.8 and 0.69 and 1.73 and 1.71 and 0.83 and 1.15
- W83813_DB81_seg27 normalized Real Time PCR [1, 3]: 0.58 and 0.61 and 0.63 and 0.51 (2×) and 0.55
- AA686189_DB71_seg6 normalized Real Time PCR expression ([1]; day28, individual animals): 1.5 and 0.62 and 0.04 and 6.37 and 0.92 and 1.28
- AI045075_DB71_seg6 normalized Real Time PCR expression ([1]; day28, individual animals): 0.66 and 0.82 and 1.6 and 1.49 and 0.9 and 0.87
- AI454051_DB71_seg0 normalized Real Time PCR expression ([1]; day28, individual animals): 0.85 and 0.92 and 0.87 and 0.96 and 1.11 and 0.72
- H31045_DB71_seg5 normalized Real Time PCR expression ([1]; day28, individual animals): 2.16 and 2.58 and 0.51 and 1.57 and 2.33 and 2.12
- H31883_DB71_seg13 normalized qRT-PCR result [2, 4]: 2.054 and 1.752 and 1.003
- MUSCYCG1R_DB81_seg19-20 normalized qRT-PCR result [2, 4]: 1.631 and 1.268 and 0.741
- W41270_DB81_seg11 normalized qRT-PCR result [2, 4]: 1.548 and 1.367 and 0.977
- H31883_DB71_seg13 normalized qRT-PCR result [2, 5]: 0.956 and 0.936 and 0.964
- MUSCYCG1R_DB81_seg19-20 normalized qRT-PCR result [2, 5]: 1.257 and 1.622 and 1.454
- W41270_DB81_seg11 normalized qRT-PCR result [2, 5]: 1.26 and 2.478 and 1.45
- H31883_DB71_seg13 normalized qRT-PCR result [2, 6]: 0.734 and 0.719 and 0.955
- MUSCYCG1R_DB81_seg19-20 normalized qRT-PCR result [2, 6]: 0.964 and 0.653 and 0.54
- W41270_DB81_seg11 normalized qRT-PCR result [2, 6]: 2.157 and 1.462 and 1.023
- H31883_DB71_seg13 normalized qRT-PCR result [2, 7]: 0.686 and 0.442 and 0.586
- MUSCYCG1R_DB81_seg19-20 normalized qRT-PCR result [2, 7]: 0.669 and 1.434 and 0.785
- W41270_DB81_seg11 normalized qRT-PCR result [2, 7]: 1.613 and 3.226 and 1.604
- H31883_DB71_seg13 normalized qRT-PCR expression (Cyclin-G1 (CCNG1) transcript) [2, 8]: 0.993 and 1.283 and 1.41 and 1.46 and 1.116
- MUSCYCG1R_DB81_seg19-20 normalized qRT-PCR expression [2, 8]: 1.387 and 1.761 and 2.256 and 1.516 and 1.627 and 1.551
- W41270_DB81_seg11 normalized qRT-PCR expression (tumor necrosis factor receptor superfamily, member 12a transcript) [2, 8]: 0.824 and 1.286 and 1.43 and 1.148 and 1.501 and 0.935
- AI045075_DB71_seg6 normalized qRT-PCR expression (Interferon stimulated exonuclease 20 (ISG20) transcript) [2, 9]: 1.248 and 1.348 and 1.319 and 1.844
- H31883_DB71_seg13 normalized qRT-PCR expression (Cyclin-G1 (CCNG1) transcript) [2, 9]: 2.129 and 0.905 and 2.586 and 1.227 and 1.377
- MUSCYCG1R_DB81_seg19-20 normalized qRT-PCR expression [2, 9]: 1.321 and 1.723 and 1.536 and 2.913 and 1.438
- W41270_DB81_seg11 normalized qRT-PCR expression (tumor necrosis factor receptor superfamily, member 12a transcript) [2, 9]: 1.017 and 1.053 and 1.551 and 1.791 and 0.851
- W64472_DB81_seg2 normalized qRT-PCR expression (Interferon stimulated exonuclease 20 (ISG20) transcript) [2, 9]: 2.03 and 2.924 and 1.441 and 3.4 and 2.561
- H31883_DB71_seg13 normalized qRT-PCR expression (Cyclin-G1 (CCNG1) transcript) [2, 10]: 1.328 and 1.54 and 1.434 and 1.642 and 1.611 and 1.408
- MUSCYCG1R_DB81_seg19-20 normalized qRT-PCR expression [2, 10]: 0.985 and 2.342 and 1.437 and 1.991 and 2.105 and 1.779
- W41270_DB81_seg11 normalized qRT-PCR expression (tumor necrosis factor receptor superfamily, member 12a transcript) [2, 10]: 1.263 and 0.73 and 2.381 and 1.44 and 0.652 and 0.787
- Label: true label (Normal/Toxic), known renal toxic effect ([2]; rat, in vivo): Toxic
